Consider one molecule from patent publication US20190350955A1, “METHODS AND PHARMACEUTICAL COMPOSITIONS FOR THE TREATMENT OF CARDIOMYOPATHIES” (INSERM (Institut National de la Sante et de la Recherche …, priority 2016, published 2019).

The subject of one assay is citrate synthase. As to the kind of experiment: Citrate synthase activity in left ventricular myocardium. The format is in vivo, mouse. The conditions noted are these: SRF HKO left ventricular myocardium at D50, NR diet. As for the experimental part:
SRF^HKO and control (Sf/Sf) mice were administered either rodent maintenance SAFE A04 diet containing 3.10% crude fat. 16.10% crude proteins. 26% starch and 1.9% sugar (Scientific Animal Food Engineering, Paris, France) or SAFE # A04 diet supplemented with NR. NR was provided by Chromadex under brand name NIAGEN (Irvine Calif. USA). The soft pellets were manually prepared every 5 days by mixing 1.65 g of NR into 500 g of powdered SAFE A04 diet and 235 ml of water to reach 2.24 mg of NR/g (wet weight). Control diet was prepared in the same way omitting NR. Mice had ad libitum access to food and water. […]
Frozen tissue samples were weighed, homogenized (Bertin Precellys 24) in ice-cold buffer (50 mg/ml) containing HEPES 5 mM (pH 8.7), EGTA 1 mM, DTT 1 mM and 0.1% Triton X-100. Citrate synthase (CS), activity was determined in homogenized ventricles as previously described (Kuznetsov et al. (2008). Analysis of mitochondrial function in situ in permeabilized muscle fibers, tissues and cells. Journal 3, 965-976). Activities of enzymes were determined by standard spectrophotometric assays. Briefly, for citrate synthase (CS), approximately 0.5 μg of protein were added in 1 ml of Buffer M (Trizma 100 mM (pH 8), 5,5′-dittiobis-(2-Nitrobenzenoic acid) 0.1 mM, Acetyl-CoA 0.3 mM, oxaloacetatic acid 0.5 mM) and the absorbance at 412 nm was measured during 3 min. […]

For the next assay, the system named is Lmna^H222P/H222P mice. As to the kind of experiment: Immunoblotting of PARylation, PARP-1, AIF, cleaved-caspase 3 in heart. Format: in vivo, mouse. The conditions noted are these: NR treated Lmna H222P/H222P mice. As for the experimental part: Mice were bred in an accredited animal facility (accreditation number: C-75-13-08). All experiments on mice were approved by the Comité d'éthique en expérimentation animate Charles Darwin No 5. Mice Lmna^H222P/H222P were backcrossed 8 times to 129S2/SvPasOrlRj strain mice to obtain pure genetic background. Male mice used for the studies were maintained under a 12 h light/12 h dark cycle at constant temperature (23° C.) with free access to food and water. Nicotinamide riboside (NR) complementation: Animals at 17 weeks of age were fed for 9 weeks with either a chow diet (A04: Scientific Animal Food & Engineering) or a chow diet complemented with 0.25% of NR (kindly provided by ChromaDex, Inc. California) corresponding to a dose of 400 mg/kg/day for a mouse weighing 25 g eating 4 g of food per day. […]
Total proteins were extracted in a glass teflon potter from around 5 mg of mouse heart in […] of Cell Lysis Buffer (Cell Signaling) completed with Deacetylation Inhibitors Cocktail (Santa Cruz). Total protein concentration was assessed with BCA™ Protein Assay (Pierce). […] The signal was captured with a CCD camera (G:Box Syngene) and quantified with ImageJ imaging Software (imagej.net).
A general note: In western blotting, separated proteins are transferred to a membrane and probed.

With `NC(=O)c1ccc[n+]([C@@H]2O[C@H](CO)[C@@H](O)[C@H]2O)c1` [NR, nicotinamide riboside], in the assay on citrate synthase, the citrate synthase activity result is reported as “protected against the decline”. Further, in the assay with Lmna^H222P/H222P mice, the “PARP-1, AIF and cleaved-caspase 3 in heart” value was “activation”; the PARylation in heart result is given as “increase”.
